Measured values from US20260226065A1, “SUBSTITUTED BENZENE COMPOUND” (DAIICHI SANKYO COMPANY, LIMITED, priority 2023, published 2026).
pIC50: −log10 of the molar value.

Columns and labels:
[1] = Pharmacokinetics test in mice (plasma and brain concentration, LC/MS/MS); format: in vivo; conditions: mouse; male BALB/c mice; oral 10 mg/kg; two hours after administration; concentration in brain homogenate standardized with concentration in plasma
Procedure: Two hours after oral administration of the test compound (10 mg/kg) to male BALB/c mice, blood was collected from the posterior vena cava under isoflurane anesthesia, and plasma was obtained by centrifugation. In addition, the brain was collected after euthanasia by exsanguination, and distilled water was added to the obtained brain sample in an amount four times the wet weight of the brain to prepare a 20% homogenate. The compound concentrations in the obtained plasma and brain homogenate were measured by LC/MS/MS. The central transfer parameter Kp, brain was calculated by standardizing the concentration in the brain homogenate with the concentration in plasma. In the table, Ex indicates the example number. […].

NLRP3 inflammasome = molecular target: T1, NLRP3 inflammasome (Homo sapiens, UniProt Q96P20); test: In vitro IL-1β production test (PMA-differentiated THP-1 cells, Nigericin stimulation, AlphaLISA); format: cell-based; conditions: inhibition of IL-1β production; THP-1 cells differentiated with 200 nM PMA; 0.015 mM Nigericin; 2 hours
T1 construct: endogenous in cells; host or cells: THP-1 (human monocyte-derived), PMA-differentiated, Nigericin-stimulated
T1 sequence (Q96P20 whole entry): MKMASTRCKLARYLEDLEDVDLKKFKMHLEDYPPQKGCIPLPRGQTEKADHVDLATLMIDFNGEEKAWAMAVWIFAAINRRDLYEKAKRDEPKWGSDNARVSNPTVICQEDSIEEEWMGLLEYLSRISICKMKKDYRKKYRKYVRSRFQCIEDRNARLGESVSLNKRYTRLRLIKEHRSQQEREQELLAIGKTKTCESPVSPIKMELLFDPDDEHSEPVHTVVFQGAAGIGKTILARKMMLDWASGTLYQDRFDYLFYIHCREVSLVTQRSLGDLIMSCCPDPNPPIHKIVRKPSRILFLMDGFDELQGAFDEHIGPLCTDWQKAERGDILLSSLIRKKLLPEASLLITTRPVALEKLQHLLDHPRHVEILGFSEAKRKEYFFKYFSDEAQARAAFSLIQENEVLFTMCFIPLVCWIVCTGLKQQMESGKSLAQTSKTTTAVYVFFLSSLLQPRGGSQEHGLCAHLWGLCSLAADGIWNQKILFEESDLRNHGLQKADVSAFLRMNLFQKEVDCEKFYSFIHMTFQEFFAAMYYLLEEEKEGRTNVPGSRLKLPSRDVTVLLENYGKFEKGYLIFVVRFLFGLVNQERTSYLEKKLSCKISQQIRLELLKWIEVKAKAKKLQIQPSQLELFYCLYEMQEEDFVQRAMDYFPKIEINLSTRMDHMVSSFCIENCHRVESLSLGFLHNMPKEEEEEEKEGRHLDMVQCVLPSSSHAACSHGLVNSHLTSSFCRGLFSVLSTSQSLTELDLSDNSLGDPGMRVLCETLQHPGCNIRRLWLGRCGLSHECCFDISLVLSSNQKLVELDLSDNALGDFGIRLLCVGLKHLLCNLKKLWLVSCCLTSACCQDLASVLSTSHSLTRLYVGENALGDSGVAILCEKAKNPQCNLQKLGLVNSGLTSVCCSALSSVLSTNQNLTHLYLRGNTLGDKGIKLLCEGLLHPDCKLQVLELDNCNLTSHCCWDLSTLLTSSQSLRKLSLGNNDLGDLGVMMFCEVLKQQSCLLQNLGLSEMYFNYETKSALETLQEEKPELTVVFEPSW
In short: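 THP-1 cells were differentiated one day with 200 nM PMA, then given serum-free medium with 0.015 mM nigericin plus compound for 2 h. Supernatant IL-1β was measured by AlphaLISA, with nigericin alone as 0% and unstimulated as 100% inhibition. IC50 came from logistic sigmoid fitting.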

Compound	Kp at 2 h [1]	pIC50 (NLRP3 inflammasome)
Cc1cc(C(F)(F)F)cc(O)c1-c1cc2c(OC(F)F)cn([C@H]3C[C@@](C)(O)C3)c2nn1 [Example 21, 2-{5-(difluoromethoxy)-7-[(1s,3s)-3-hydroxy-3-methylcyclobutyl]-7H-pyrrolo[2,3-c]pyridazin-3-yl}-3-methyl-5-(trifluoromethyl)phenol]	0.83	7.70
Cc1cc(Cl)cc(O)c1-c1cc2c(F)cn([C@H]3C[C@@](C)(O)C3)c2nn1 [Example 27, 5-chloro-2-{5-fluoro-7-[(1s,3s)-3-hydroxy-3-methylcyclobutyl]-7H-pyrrolo[2,3-c]pyridazin-3-yl}-3-methylphenol]	0.92	7.59
COc1cn([C@H]2C[C@@](C)(O)C2)c2nnc(-c3c(C)cc(C(F)(F)F)cc3O)cc12 [Example 10, 2-{7-[(1s,3s)-3-hydroxy-3-methylcyclobutyl]-5-methoxy-7H-pyrrolo[2,3-c]pyridazin-3-yl}-3-methyl-5-(trifluoromethyl)phenol]	0.7	7.62
Cc1cc(C(F)(F)F)cc(O)c1-c1cc2ccn([C@H]3C[C@@](C)(O)C3)c2nn1 [Example 3, 2-{7-[(1s,3s)-3-hydroxy-3-methylcyclobutyl]-7H-pyrrolo[2,3-c]pyridazin-3-yl}-3-methyl-5-(trifluoromethyl)phenol]	1.1	7.28
Cc1cc(C(F)(F)F)cc(O)c1-c1cc2c(C)cn([C@H]3C[C@@](C)(O)C3)c2nn1 [Example 4, 2-{7-[(1s,3s)-3-hydroxy-3-methylcyclobutyl]-5-methyl-7H-pyrrolo[2,3-c]pyridazin-3-yl}-3-methyl-5-(trifluoromethyl)phenol]	0.65	7.70
Cc1cc(C(F)(F)F)cc(O)c1-c1cc2c(F)cn([C@H]3C[C@@](C)(O)C3)c2nn1 [Example 5, 2-{5-fluoro-7-[(1s,3s)-3-hydroxy-3-methylcyclobutyl]-7H-pyrrolo[2,3-c]pyridazin-3-yl}-3-methyl-5-(trifluoromethyl)phenol]	1.68	7.50
Cc1cc(C(F)(F)F)cc(O)c1-c1cc2c(nn1)N([C@@H]1CCCN(C)C1)C[C@@H]2C (single isomer, unassigned) [Example 34, 3-methyl-2-{(5R or 5S)-5-methyl-7-[(3R)-1-methylpiperidin-3-yl]-6,7-dihydro-5H-pyrrolo[2,3-c]pyridazin-3-yl}-5-(trifluoromethyl)phenol]		8.04
CN1CCC[C@@H](N2CCN3CCCc4c(-c5ccc(C(F)(F)F)cc5O)nnc2c43)C1 [Example 38, 2-{9-[(3R)-1-methylpiperidin-3-yl]-5,6,8,9-tetrahydro-4H, 7H-1,2,6a,9-tetraazaphenalen-3-yl}-5-(trifluoromethyl)phenol]		6.97
